Experiments:
[1] = pH 7.5
[2] = MicroPET/CT imaging, in vivo stability in nude mice; details: for free [18F]-fluoride signal / release in vivo: murine model, up to 3 hours post-injection
Protocol: (§1) The stability of [^18F]-1 was first investigated in phosphate buffer solution (1×PBS). […] The stability of [^18F]-1 was further evaluated in a murine model. The probe [^18F]-1 (0.1 mCi) was injected into female nude mice and static microPET scans were obtained at 3 hours after the injection.
MicroPET imaging were acquired at 3 h post injection. For PET image acquiring, a female nude mouse was injected with 0.1 mCi of [^18F]-1 via the tail vein. At 3 hour post injection, the mouse was anesthetized using isoflurane (2% in oxygen), then placed into imaging chambers equipped with a heated coil to maintain body temperature and gas anesthesia. The static microPET acquisitions were then achieved and reconstructed for analysis.

[3] = In vitro stability of [18F]-1 in 1×PBS by radio-HPLC; type: physicochemical; details: incubation time 3 hours
Protocol: as §1
After HPLC purification, [^18F]-1 was re-injected into HPLC for a radio profile standard. Then, the probe was added with 10×PBS to reconstruct the solution to IX PBS and 0.1 N NaOH to adjust pH to 7, respectively. After 1 hour and 3 hours incubation, a fraction of [^18F]-1 was injected into HPLC. The radio purity was calculated based on the integration of the product peak and other minor peaks.

| SMILES | free fluoride signal / release of free fluoride [1] | hydrolytic stability (in words) [1] | free [18F]-fluoride signal / release in vivo ([2]; listed as IMe-PF5) | pseudo-first order rate constant (kobs) of hydrolysis [1] [min⁻¹] | radiochemical purity after incubation [3] [%] | localization in microPET/CT images ([2]; female nude mice, 0.1 mCi via tail vein, static scan 3 h after injection) | bone uptake ([2]; female nude mice, 0.1 mCi, 3 h post-injection) | route of clearance ([2]; female nude mice, 0.1 mCi, microPET/CT 3 h after injection) | free [18F]-fluoride signal / release in vivo [2] | free [18F]-fluoride signal / release in vivo ([2]; listed as 18F—PFS-carbene) |
| --- | --- | --- | --- | --- | --- | --- | --- | --- | --- | --- |
| Cn1cc[n+](C)c1[P-](F)(F)(F)(F)F [Compound 1, IMe-PF5] | not observed | highly water stable | not observed |  |  |  |  |  |  |  |
| Cn1cc[n+](C)c1[P-](F)(F)(F)(F)c1ccccc1 [Compound 2, (NHC)PF4Ph] |  | highly water stable |  | 2.3e-05 |  |  |  |  |  |  |
| Cn1cc[n+](C)c1[P-](F)(F)(F)(F)F [[^18F]-1] |  |  |  |  | > 98 | obvious localization in the bladder | No bone uptake was observed | cleared through the urinary track | insignificant | not observed |
